Measured values taken from PubChem BioAssay AID1963863 (Molecular Pharmacology Branch, DTP, NCI, 2024).
pIC50: −log10 of the molar value.

System: 931267-113-T-J1-PDC KRAS spheroid with HUVEC/MSC, viability
Experiment: Anticancer human tumor 931267-113-T-J1-PDC patient-derived colon adenocarcinoma cell line growth inhibition [KRAS2]
Details: for pIC50: curve of first compound; for viability, T/C: stronger effect = lower value
In short: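 KRAS-mutant tumor cells were grown as spheroids with HUVEC endothelial cells and human MSCs as stroma. Targeted agents were tested alone and with KRAS pathway inhibitors. Doses started at or near clinical Cmax, or 10 microM, descending half-log.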

[1] = second compound 0.1 µM, first compound 0.0316 µM
[2] = second compound 0.1 µM, first compound 0.1 µM
[3] = second compound 0.1 µM, first compound 0.316 µM
[4] = second compound 0.1 µM, first compound 1 µM
[5] = second compound 0.1 µM, first compound 3.16 µM
[6] = second compound 0.1 µM, first compound 10 µM
[7] = second compound 0.316 µM, first compound 0.0316 µM
[8] = second compound 0.316 µM, first compound 0.1 µM
[9] = second compound 0.316 µM, first compound 0.316 µM
[10] = second compound 0.316 µM, first compound 1 µM
[11] = second compound 0.316 µM, first compound 3.16 µM
[12] = second compound 0.316 µM, first compound 10 µM
[13] = second compound 1 µM, first compound 0.0316 µM
[14] = second compound 1 µM, first compound 0.1 µM
[15] = second compound 1 µM, first compound 0.316 µM
[16] = second compound 1 µM, first compound 1 µM
[17] = second compound 1 µM, first compound 3.16 µM
[18] = second compound 1 µM, first compound 10 µM
[19] = second compound 3.16 µM, first compound 0.0316 µM
[20] = second compound 3.16 µM, first compound 0.1 µM
[21] = second compound 3.16 µM, first compound 0.316 µM
[22] = second compound 3.16 µM, first compound 1 µM
[23] = second compound 3.16 µM, first compound 3.16 µM
[24] = second compound 3.16 µM, first compound 10 µM
[25] = second compound 10 µM, first compound 0.0316 µM
[26] = second compound 10 µM, first compound 0.1 µM
[27] = second compound 10 µM, first compound 0.316 µM
[28] = second compound 10 µM, first compound 1 µM
[29] = second compound 10 µM, first compound 3.16 µM
[30] = second compound 10 µM, first compound 10 µM
[31] = second compound 0.1 µM, first compound 0.01 µM
[32] = second compound 0.316 µM, first compound 0.01 µM
[33] = second compound 1 µM, first compound 0.01 µM
[34] = second compound 3.16 µM, first compound 0.01 µM
[35] = second compound 10 µM, first compound 0.01 µM
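Note: compound exposure lasted 7 days before the readout.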
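Throughout, for viability, T/C: 100% = DMSO vehicle control viability.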

SMILES | pIC50 (second compound 0.1 µM) | pIC50 (second compound 0.316 µM) | pIC50 (second compound 1 µM) | pIC50 (second compound 3.16 µM) | pIC50 (second compound 10 µM) | viability, T/C [1] | viability, T/C [2] | viability, T/C [3] | viability, T/C [4] | viability, T/C [5] | viability, T/C [7] | viability, T/C [8] | viability, T/C [9] | viability, T/C [10] | viability, T/C [13] | viability, T/C [14] | viability, T/C [19] | viability, T/C [20] | viability, T/C [25] | viability, T/C [26] | further results
CC1OCC2(CCN(c3cnc(Sc4ccnc(N)c4Cl)c(N)n3)CC2)C1N (stereo not given) + CNCc1ccccc1-c1csc(C(C)Nc2nc(C)nc3cc(OC)c(OC)cc23)c1 | < 5.00 | < 5.00 | 7.50 | > 7.50 | > 7.50 | 96.8% | 70.7% | 66.5% | 68.3% | 61.1% | 88.6% | 89.3% | 72% | 63.2% | 51.3% | 44.8% | 0.09% | 0.09% | 0.12% | 0.19% | viability, T/C [6]: 59.8%; viability, T/C [11]: 78.8%; viability, T/C [12]: 81.8%; viability, T/C [15]: 54.2%; viability, T/C [16]: 33.1%; viability, T/C [17]: 33.2%; viability, T/C [18]: 27.5%; viability, T/C [21]: 0.08%; viability, T/C [22]: 0.08%; viability, T/C [23]: 0.08%; viability, T/C [24]: 0.17%; viability, T/C [27]: 0.13%; viability, T/C [28]: 0.13%; viability, T/C [29]: 0.12%; viability, T/C [30]: 0.17%
CC(=O)OC12COC1CC(O)C1(C)C(=O)C(O)C3=C(C)C(OC(=O)C(O)C(NC(=O)OC(C)(C)C)c4ccccc4)CC(O)(C(OC(=O)c4ccccc4)C21)C3(C)C (stereo not given) + COc1cc2nc(C)nc(NC(C)c3cc(N)cc(C(F)(F)F)c3)c2cc1OC1CCOC1 | < 5.50 | < 5.50 | < 5.50 | < 5.50 | < 5.50 | 77.7% | 81.3% | 83.7% | 92.4% | 106% | 76.3% | 92% | 76.7% | 82.6% | 105% | 88.2% | 107% | 76.5% | 110% | 96.2% | viability, T/C [31]: 84.9%; viability, T/C [32]: 88%; viability, T/C [11]: 72.1%; viability, T/C [33]: 95%; viability, T/C [15]: 88%; viability, T/C [16]: 96.7%; viability, T/C [17]: 56.9%; viability, T/C [34]: 90%; viability, T/C [21]: 83.9%; viability, T/C [22]: 83.8%; viability, T/C [23]: 84.9%; viability, T/C [35]: 98%; viability, T/C [27]: 84.3%; viability, T/C [28]: 72.5%; viability, T/C [29]: 92%
CN(C)C/C=C/C(=O)Nc1cc2c(Nc3ccc(F)c(Cl)c3)ncnc2cc1O[C@H]1CCOC1 + COc1cc2nc(C)nc(NC(C)c3cc(N)cc(C(F)(F)F)c3)c2cc1OC1CCOC1 | < 7.00 | < 7.00 | < 7.00 | < 7.00 | < 7.00 | 103% | 116% |  |  |  | 85.2% | 93.5% |  |  | 100% | 94% | 97.2% | 108% | 102% | 83.7% | viability, T/C (second compound 0.1 µM, first compound 0.000316 µM): 96.2%; viability, T/C (second compound 0.1 µM, first compound 0.001 µM): 92.8%; viability, T/C (second compound 0.1 µM, first compound 0.00316 µM): 75.7%; viability, T/C [31]: 87.5%; viability, T/C (second compound 0.316 µM, first compound 0.000316 µM): 81.8%; viability, T/C (second compound 0.316 µM, first compound 0.001 µM): 75%; viability, T/C (second compound 0.316 µM, first compound 0.00316 µM): 90.3%; viability, T/C [32]: 87.6%; viability, T/C (second compound 1 µM, first compound 0.000316 µM): 87.7%; viability, T/C (second compound 1 µM, first compound 0.001 µM): 92.5%; viability, T/C (second compound 1 µM, first compound 0.00316 µM): 104%; viability, T/C [33]: 89.8%; viability, T/C (second compound 3.16 µM, first compound 0.000316 µM): 72.8%; viability, T/C (second compound 3.16 µM, first compound 0.001 µM): 72.8%; viability, T/C (second compound 3.16 µM, first compound 0.00316 µM): 88.1%; viability, T/C [34]: 74.9%; viability, T/C (second compound 10 µM, first compound 0.000316 µM): 69.6%; viability, T/C (second compound 10 µM, first compound 0.001 µM): 78.8%; viability, T/C (second compound 10 µM, first compound 0.00316 µM): 77%; viability, T/C [35]: 88.6%
O=C(c1cc(Cc2n[nH]c(=O)c3ccccc23)ccc1F)N1CCN(C(=O)C2CC2)CC1 + COc1cc2nc(C)nc(NC(C)c3cc(N)cc(C(F)(F)F)c3)c2cc1OC1CCOC1 | < 5.00 | < 5.00 | < 5.00 | < 5.00 | < 5.00 | 78.7% | 81.4% | 85.7% | 87.7% | 94.6% | 85.1% | 99.7% | 88.2% | 70.9% | 89.6% | 92.1% | 107% | 87.5% | 101% | 112% | viability, T/C [6]: 113%; viability, T/C [11]: 85.6%; viability, T/C [12]: 73%; viability, T/C [15]: 99.1%; viability, T/C [16]: 112%; viability, T/C [17]: 97.5%; viability, T/C [18]: 84.1%; viability, T/C [21]: 95.5%; viability, T/C [22]: 94.4%; viability, T/C [23]: 106%; viability, T/C [24]: 105%; viability, T/C [27]: 94.7%; viability, T/C [28]: 98.3%; viability, T/C [29]: 90.3%; viability, T/C [30]: 97.3%
